Source: patent US7611863B2, “Selective staining of biomembranes using voltage-sensitive dyes” (Max-Planck-Gesellschaft zur Foerderung der Wissenschaften …, priority 2004, dated 2009)

Assays:
human erythrocytes = experiment: Enzyme induced staining of red blood cells; assay type: cell-based; settings: 9.8 μM, PLAP added
Description: Enzyme induced staining of red blood cells. Human erythrocytes were prepared according to a slightly modified standard procedure^29. 4 ml of blood of MJH were sucked into a tube coated with EDTA (Vacutainer 367,861, Becton Dickinson, Meylan, France) and centrifuged for 10 min at 1600 g. The pellet (˜1 ml) was washed three times by resuspension and centrifugation for 10 min at 1600 g using 15 ml of a 300 mOsm Tris buffer (50 mM Tris, 110 mM NaCl, pH 7.4). Finally, the pellet was diluted with an equal volume of the same buffer additionally containing 1 mM CaCl2.
The staining experiments with erythrocytes were similar to those with giant vesicles. […]
Di-4-ASPP phosphate was added to human erythrocytes attached to a culture dish to a concentration of 9.8 μM. Membrane fluorescence was measured in the same setup as with giant vesicles. Fluorescence was weaker than with giant vesicles, which we attribute to fluorescence quenching by hemoglobin and the smaller size of the erythrocytes. […]
Plots of the intensity of a row of pixels cutting through the image of an erythrocyte at its maximum diameter are shown in B. The normalized maximum brightness minus the background signal versus time is shown in C. The ratio of final and initial fluorescence was F∞/F0=11-25 with an average of 15. These values are similar to the fluorescence enhancement on giant vesicles. […]

[1] = tested on: HEK 293 cells expressing fusion protein of plasma membrane anchor and PLAP; experiment: Staining of HEK 293 cells through overexpressed membrane-bound phosphatase; assay type: cell-based
From the text: FIG. 13A to C: Staining of transfected HEK 293 cells with a voltage sensitive dye by activation of binding through an overexpressed, membrane-bound phosphatase. HEK 293 cells were cotransfected with a vector coding for GFP and a vector coding for a fusion protein of a plasma membrane anchor and phosphatase from the human placenta. A. fluorescence image showing the GFP fluoresence of a transfected cell (excitation filter 450/50 nm, emission filter 510 nm longpass; dichroic mirror: 505 nm). B. The voltage sensitive fluorescent dye Di-8-phosphato-ASPBS (cf. FIG. 11, bottom) was added to the incubation medium. […] C. […] The images shown are optimized for contrast and intensity.
(§1) FIG. 16. Genetically Targeted Staining of HEK293 cells with 1 mM Di-10P-ASPBS. A mixture of stable clones either expressing the membrane-bound phosphatase construct or cytosolic GFP were cultured on the same dish. (A) From left to right: (i) Brightfield image of cells. (ii) Fluorescence image of cells showing cells expressing cytosolic GFP (excitation filter 450/50 nm, emission filter 510 nm, dichroic mirror 505 nm). (iii) Cells expressing phosphatase as obtained by subtraction of GFP expressing cells from image i. (iv) Fluorescence image of cells with filters exc. 535/50 nm, em. 610/75 nm; dichroic mirror 535 nm. The image is normalized to the same level as in row B. (v) autoleveled image iv, showing fluorescence crosstalk of GFP. (B) Enzyme induced staining of cells as measured with filter set exc. 535/50 nm, em. 610/75 nm; dichroic mirror 535 nm. The membrane fluorescence increases over time. (C). Inverted and contrast-enhanced fluorescence images corresponding to row B. (D) Difference images. The image A/iv was subtracted from the images in row B. The resulting images were inverted and contrast was enhanced.
as §1, with “17.” for “16.”, “200 nM Di-12P-ASPBS.” for “1 mM Di-10P-ASPBS.”, “difference” for “and contrast-enhanced fluorescence images corresponding to row B. (D) Difference”, “enhanced. (D) Contrast enhanced images of row C.” for “enhanced.”
Enzyme induced staining. The dye precursors Di-10P-ASPBS and Di-12P-ASPBS were used to effect enzyme induced staining on cells. To test whether the staining is selective, a mixture of two cell populations was cultured in the same dish. One of these stably expressed the phosphatase construct, while the other was stably expressing GFP as a negative marker.

| Compound | ratio of final and initial fluorescence F∞/F0, average (human erythrocytes) | ratio of final and initial fluorescence F∞/F0, range (human erythrocytes) | selectivity of staining among precursor dyes ([1]; HEK293 and MDCK cells overexpressing ArtPlasMA-PLAP, Di-8P, Di-10P, Di-12P compared) | staining intensity and confinement to phosphatase expressing cells ([1]; compared with Di-10P-ASPBS) | enzyme induced membrane staining in mixed cell populations ([1]; phosphatase clones and GFP clones in same dish, 1 mM Di-10P-ASPBS, 200 nM Di-12P-ASPBS) |
| --- | --- | --- | --- | --- | --- |
| CCCCN(CCCC)c1ccc(/C=C/c2cc[n+](CCCOP(=O)([O-])O)cc2)cc1 [Di-4-ASPP phosphate] | 15 | 11-25 |  |  |  |
| Di-12-phosphato-ASPBS [Di-12P-ASPBS] |  |  | best selectivity | distinctly better | allowed enzyme induced membrane staining |
